22 compounds from PMC9571290, “Preliminary Structure–Activity Relationship Study of the MMV Pathogen Box Compound MMV675968 (2,4-Diaminoquinazoline) Unveils Novel Inhibitors of Trypanosoma brucei brucei” (Molecules, 2022) can be followed below.

Read-outs that look alike come from different tables or passages of the source. A value given as a limit tells only on which side of the number the result lay.

The subject of series [1] is bloodstream forms of Trypanosoma brucei brucei. Kind of series: resazurin-based antitrypanosomal inhibition assay. The format is cell-based. The conditions noted are these: Trypanosoma brucei. The method, then:
Parasites were axenically cultivated in sterile vented flasks containing complete Hirumi’s modified Iscove’s medium 9 (HMI-9) [500 mL IMDM (Iscove’s modified Dulbecco’s medium) (Gibco, Waltham, MA, USA) supplemented with 10% (v/v) heat-inactivated fetal bovine serum (HIFBS) (Sigma Aldrich), 10% (v/v) serum plus (Sigma Aldrich), HMI-9 supplement (1 mM hypoxanthine, 0.16 mM thymidine, 50 µM bathocuproine disulfonic acid, 1.5 mM cysteine, 1.25 Mm pyruvic acid, 0.2 mM 2-mercaptoethanol (Sigma Aldrich)), and 1% (v/v) penicillin–streptomycin (Sigma Aldrich) and incubated at 37 °C in a 5% CO2 atmosphere.
The in vitro inhibitory potency of the 400 MMVPB compounds against bloodstream forms of Trypanosoma brucei brucei was evaluated using the resazurin-based inhibition assay as previously described. Briefly, parasites at their mid-logarithmic growth phase were counted, and the cell density was adjusted with fresh complete HMI-9 medium to 2 × 10^5 trypanosomes per mL. Then, 90 µL of parasite suspension was then distributed into the wells of 96-well flat-bottomed plates containing 10 µL of compounds for a final test concentration of 10 µM. […] Each assay plate was set up in duplicate and repeated two times. The percent parasite inhibition was determined for each compound based on fluorescence readouts relative to the mean fluorescence of negative control wells.
y = 100/[1+ 10^(logIC50/99-x)H], where H is the hill coefficient or slope factor [60].
(In general: Resazurin is reduced to fluorescent resorufin, in cell work by metabolically active cells.)

A short description of a further series: in vitro. The conditions noted are these: African green monkey. The method, then: The resulting pellet was resuspended and counted in a Neubauer chamber in the presence of trypan blue to exclude nonviable cells colored in blue. Once the cell load was estimated, they were either used for the next passage in a new flask or processed for the cytotoxicity assay.
Briefly, Vero cells at a density of 10^4 cells per well were plated in 100 µL of complete DMEM and incubated overnight to allow cell attachment. Plates were then controlled under an inverted fluorescence microscope (Lumascope LS520) to ensure adherence, sterility and cell integrity. Thereafter, culture medium from each well was carefully emptied, and plates were filled with 90 µL of fresh complete medium followed by the addition of 10 µL of serial 5-fold dilutions of compound solutions. […] Fluorescence was then read using a Magelan Infinite M200 fluorescence multiwell plate reader (Tecan) with excitation and emission wavelengths of 530 and 590 nm, respectively. The percentage of cell viability was calculated from readouts, and the median cytotoxic concentration (CC50) for each compound was deduced from concentration–response curves using GraphPad Prism 8.0 software as described above. Selectivity indexes were then determined for each test substance as follows: SI = CC50(Vero cells)/IC50(T. brucei brucei).

Where [2] appears, read: Table 4, analogs of MMV675968, solid material, read-out: IC50 ± SD T. b. b.
The mark [3] stands for this setting: Table 4, negative log of IC50 in molar, read-out: pIC50 T. b. b. (converted).
The mark [4] stands for this setting: Table 1, reference drugs included in MMVPB, read-out: IC50 ± SD T. b. b.
Setting [5] is: Table 1, negative log of IC50 in molar, read-out: pIC50 T. b. b. (converted).

`Cc1ccccc1NCc1ccc2nc(N)nc(N)c2c1Cl` [Analog 5]: the results for the IC50 in series [1] (setting [2]) and in series [1] (setting [3]) were 2.3 ± 0.2 µM and 2.29 µM, respectively. The CC50 at 48 h in “in vitro” was greater than 100 µM.
As for `COc1ccc(NCc2ccc3nc(N)nc(N)c3c2)cc1OC` [Analog 6], the IC50 in series [1] (setting [2]) is 0.56 ± 0.07 µM; in series [1] (setting [3]) it was 0.562 µM. The CC50 at 48 h in “in vitro” was greater than 100 µM.
On to `COc1ccc(NCc2ccc3nc(N)nc(N)c3c2)cc1` [Analog 8], for which the IC50 in series [1] (setting [2]) was 0.25 ± 0.01 µM; in series [1] (setting [3]) it was 0.251 µM. This compound also displayed a CC50 at 48 h in “in vitro” of 30.9 ± 2.3 µM.
Turning to `Cc1ccccc1NCc1ccc2nc(N)nc(N)c2c1` [Analog 9], the IC50 in series [1] (setting [2]) is 0.19 ± 0.003 µM; in series [1] (setting [3]) it was 0.191 µM. In addition, the CC50 at 48 h in “in vitro” amounted to 22 ± 1.3 µM.
For `COc1ccc(NC(=O)c2ccc3nc(N)nc(N)c3c2)cc1` [Analog 11] the same measures were 4 ± 1.3 µM, 3.98 µM and 22.9 ± 0.5 µM.
For the compound `COc1ccc(NC(=O)c2ccc3nc(N)nc(N)c3c2)cc1OC` [Analog 12], the IC50 in series [1] (setting [2]) is greater than 10 µM. In addition, in “in vitro”, the CC50 at 48 h is greater than 100 µM.
`COc1ccccc1NC(=O)c1ccc2nc(N)nc(N)c2c1` [Analog 13]: the IC50 in series [1] (setting [2]) is 3.2 ± 0.3 µM; in series [1] (setting [3]), 3.24 µM. This compound also gave a CC50 at 48 h in the series “in vitro” greater than 100 µM.
`COc1cccc(CNC(=O)c2ccc3nc(N)nc(N)c3c2)c1` [Analog 14]: the IC50 in series [1] (setting [2]) was 2.5 ± 0.13 µM; in series [1] (setting [3]), 2.51 µM. The compound further came in with a CC50 at 48 h in “in vitro” greater than 100 µM.
For `Cc1ccccc1NC(=O)c1ccc2nc(N)nc(N)c2c1` [Analog 15], the IC50 in series [1] (setting [2]) was greater than 10 µM. The CC50 at 48 h in the series “in vitro” is greater than 100 µM.
For `COc1ccccc1NCc1cnc(N)nc1N` [Analog 16] the same measures were greater than 10 µM and greater than 100 µM.
In the case of `COc1ccc(NCc2cnc(N)nc2N)cc1` [Analog 17], the IC50 in series [1] (setting [2]) was greater than 10 µM. The compound further registered a CC50 at 48 h in “in vitro” greater than 100 µM.
Consider `COc1cccc(CNCc2cnc(N)nc2N)c1` [Analog 18], for which the IC50 in series [1] (setting [2]) is greater than 10 µM. This compound showed a CC50 at 48 h in the series “in vitro” greater than 100 µM.
In the case of `COc1cccc(CNC(=O)c2cnc(N)nc2N)c1` [Analog 19], the IC50 in series [1] (setting [2]) is greater than 10 µM. For the same compound, in “in vitro”, the CC50 at 48 h was greater than 100 µM.
For `COc1ccc(NC(=O)c2cnc(N)nc2N)cc1` [Analog 20] the same measures were greater than 10 µM and greater than 100 µM.
Consider `COc1ccccc1NC(=O)c1cnc(N)nc1N` [Analog 21], for which the IC50 in series [1] (setting [2]) is greater than 10 µM. Besides, in the series “in vitro”, the CC50 at 48 h was greater than 100 µM.
The like results for `Nc1ncc(C(=O)Nc2cccnc2)c(N)n1` [Analog 22] were, in that order, greater than 10 µM and greater than 100 µM.
As for `Cc1ccccc1NC(=O)c1cnc(N)nc1N` [Analog 23], in series [1] (setting [2]), the IC50 was greater than 10 µM. The same compound gave a CC50 at 48 h in “in vitro” greater than 100 µM.
On to `COc1ccc(NC(=O)c2cnc(N)nc2N)cc1OC` [Analog 24], for which the IC50 in series [1] (setting [2]) was greater than 10 µM. Moreover, the CC50 at 48 h in the series “in vitro” is greater than 100 µM.
On to `OC(c1cc(C(F)(F)F)nc2c(C(F)(F)F)cccc12)C1CCCCN1` (stereo not shown) [MMV000016, Mefloquine, reference compound], for which the IC50 is 1.6 ± 0.008 µM in series [1] (setting [4]) and 1.58 µM in series [1] (setting [5]). The CC50 at 48 h in “in vitro” turned out to be 11.3 µM.
The like results for `CCN(CC)CCCCCCNc1cc(OC)cc2c(C)ccnc12` [MMV000063, Sitamaquine, reference compound] were, in that order, 1.5 ± 0.03 µM, 1.58 µM and greater than 100 µM.
For `CC1CS(=O)(=O)CCN1/N=C/c1ccc([N+](=O)[O-])o1` (stereo not shown) [MMV001499, Nifurtimox, reference compound] the same measures were 0.2 ± 0.09 µM, 0.2 µM and greater than 100 µM.
Consider `Cc1ccc(C(=O)Nc2ccc(S(=O)(=O)O)c3cc(S(=O)(=O)O)cc(S(=O)(=O)O)c23)cc1NC(=O)c1cccc(NC(=O)Nc2cccc(C(=O)Nc3cc(C(=O)Nc4ccc(S(=O)(=O)O)c5cc(S(=O)(=O)O)cc(S(=O)(=O)O)c45)ccc3C)c2)c1` [MMV637953, Suramine, reference compound], for which the figures for the IC50 in series [1] (setting [4]) and in series [1] (setting [5]) were 0.08 ± 0.01 µM and 0.0813 µM, respectively. This compound also registered a CC50 at 48 h in the series “in vitro” greater than 100 µM.
